According to publication PMC7290285 (Viruses, 2020):
pIC50: −log10 of the molar value.

Tests used:
HIV = system: HIV; design: method as in earlier work; conditions: read-out: reported IC50; cited from earlier work
[1] = system: luciferase lentiviral particles (wild-type RT) in HEK293T-mCat1 cells; assay: Luciferase-based screening using HEK293T-mCat1 cells; conditions: 1 µM
[2] = target: eGFP-encoding lentiviral vectors (mutant reverse transcriptase); assay: Flow-cytometry based inhibitor analysis, eGFP vector; assay type: cell-based, HIV-1; conditions: Figure S2, read-out: IC50 of the AZT-resistant mutant, FC-based analysis
[3] = system: lentiviral particles with wild-type HIV-1 reverse transcriptase (mCherry) in HEK293T-mCat1 cells; assay: microbe, parasite or virus in culture; assay type: cell-based
HEK293T-mCat1 cells = conditions: 1 µM
[4] = target: mCherry-encoding lentiviral vectors (wild-type reverse transcriptase); assay: Flow-cytometry based inhibitor analysis, mCherry vector; assay type: cell-based, HIV-1; conditions: Figure S2, read-out: IC50 of the wild-type virus, FC-based analysis
[5] = system: HIV-1-derived lentiviral particles (wild-type RT and AZT-resistant RT mutant) in HEK293T-mCat1 cells; assay type: cell-based; conditions: 1 µM
[6] = system: lentiviral particles with AZT-resistant RT mutant (eGFP) in HEK293T-mCat1 cells; assay: microbe, parasite or virus in culture; assay type: cell-based, HIV-1

## Nc1nc2c(ncn2CCOCP(=O)(O)O)c(=O)[nH]1 [PMEG hydrate]
HIV
  pIC50: 6.70
[1]; second LOPAC screen
  Identified as active in the luciferase assay: again identified
[1]; normalized to 1 µM AZT = 100% and DMSO = 0%, HEK293T-mCat1, 3 days
  Relative inhibition [%] of luciferase (wild-type RT): 156%
[2]
  pIC50: 5.92
[3]
  Residual transduction rate, mCherry encoding lentiviral particles, microscopy: 30%
[3]; 1 µM
  Relative inhibition [%] of mCherry (wild-type RT): 94%
HEK293T-mCat1 cells
  Viability [%]: 54%
[4]
  pIC50: 6.25
[5]
  residual activity in the high-content screening: 5%
[6]
  Residual transduction rate, eGFP encoding lentiviral particles, microscopy: 5%
[6]; 1 µM
  Relative inhibition [%] of eGFP (mutant RT): 70%
